Test results taken from patent US20040024024A1, “Aromatic sulfone hydroxamates and their use as protease inhibitors” (priority 2001, published 2004).
pKi: −log10 of the molar value.

Tests used:
Human recombinant MMP-9 = molecular target: T1, Human recombinant MMP-9 (Homo sapiens, UniProt P14780); experiment: In vitro MMP inhibition, Ki determination (fluorogenic substrate II); assay type: biochemical
T1 construct: made in house; host or cells: MMP-9-transfected HT1080 cells (spent media)
Summary of the method: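 MMP-9 proenzyme purified from transfected HT1080 cell media, activated with APMA, trypsin or recombinant MMP-3; hydroxamates diluted in pH 7.5 Tris/NaCl/CaCl2 buffer. Cleavage of 4 μM MCA/Dpa substrate II followed by fluorescence (ex 330/em 420 nm), 1 h at room temperature. Ki from Morrison-equation fit, substrate at/below Km, uncorrected.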

Human recombinant MMP-2 = molecular target: T2, Human recombinant MMP-2 (Homo sapiens, UniProt P08253); experiment: as above; assay type: biochemical
T2 construct: made in house; host or cells: MMP-2-transfected p2AHT2 cells
T2 sequence (P08253 110-660): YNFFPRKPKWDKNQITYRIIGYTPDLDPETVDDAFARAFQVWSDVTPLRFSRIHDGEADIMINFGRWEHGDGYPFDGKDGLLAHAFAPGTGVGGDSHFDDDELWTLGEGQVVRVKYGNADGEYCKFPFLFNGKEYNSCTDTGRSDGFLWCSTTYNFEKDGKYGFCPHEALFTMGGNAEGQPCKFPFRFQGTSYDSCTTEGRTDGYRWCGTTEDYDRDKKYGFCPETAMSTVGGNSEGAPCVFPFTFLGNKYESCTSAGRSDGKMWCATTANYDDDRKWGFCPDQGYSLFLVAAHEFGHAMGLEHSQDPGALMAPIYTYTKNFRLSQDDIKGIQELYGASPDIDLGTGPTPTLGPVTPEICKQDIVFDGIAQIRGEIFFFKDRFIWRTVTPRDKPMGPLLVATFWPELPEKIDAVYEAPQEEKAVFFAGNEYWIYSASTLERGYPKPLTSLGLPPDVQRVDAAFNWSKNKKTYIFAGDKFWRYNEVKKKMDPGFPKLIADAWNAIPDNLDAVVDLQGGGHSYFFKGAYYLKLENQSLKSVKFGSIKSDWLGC

[1] = substrate (II) 4 μM, 1 hr room temperature, apparent Ki, values in parenthesis

T1 sequence (P14780 107-707 limits assumed): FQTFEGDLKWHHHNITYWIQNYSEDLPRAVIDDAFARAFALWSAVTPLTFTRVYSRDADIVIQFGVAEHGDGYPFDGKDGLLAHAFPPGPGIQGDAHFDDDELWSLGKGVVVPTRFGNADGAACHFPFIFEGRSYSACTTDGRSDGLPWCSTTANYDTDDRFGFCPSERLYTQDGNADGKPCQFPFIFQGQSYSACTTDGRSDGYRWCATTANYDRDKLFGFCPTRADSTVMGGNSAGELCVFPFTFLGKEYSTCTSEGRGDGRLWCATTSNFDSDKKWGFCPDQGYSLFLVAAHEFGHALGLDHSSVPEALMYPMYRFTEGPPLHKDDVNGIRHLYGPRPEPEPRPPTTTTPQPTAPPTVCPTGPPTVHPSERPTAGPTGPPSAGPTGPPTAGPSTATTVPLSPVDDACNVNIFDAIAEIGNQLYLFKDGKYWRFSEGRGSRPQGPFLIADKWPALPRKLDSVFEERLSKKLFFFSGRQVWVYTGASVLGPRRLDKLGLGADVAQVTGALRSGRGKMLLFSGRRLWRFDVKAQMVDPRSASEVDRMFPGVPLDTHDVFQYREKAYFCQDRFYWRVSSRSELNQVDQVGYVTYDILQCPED

Row | Compound | pKi (Human recombinant MMP-9; value in parenthesis) | pKi (Human recombinant MMP-2; value in parenthesis) | pKi (Human recombinant MMP-9; value in parentheses) | pKi (Human recombinant MMP-2; value in parentheses) | also measured
1 | O=C(NO)C1(S(=O)(=O)c2ccc(OCCCc3cccc(-c4ccc(F)c(F)c4)c3)cc2)CCOCC1 [Example 170] | 5.82 | 5.85 | – | – | –
2 | CCCC(=O)CCCOc1ccc(S(=O)(=O)C2(C(=O)NO)CCOCC2)cc1 [Example 505] | – | – | 7.99 | 8.59 | –
3 | O=C(NO)C1(S(=O)(=O)c2ccc(OCCCc3cccc(-c4ccc(Cl)c(Cl)c4)c3)cc2)CCOCC1 [Example 169] | 5.19 | 5.27 | – | – | –
4 | COCCN1CCC(C(=O)NO)(S(=O)(=O)c2ccc(OCCc3cccc(-c4ccccc4)c3)cc2)CC1 [Example 45] | – | – | – | – | pKi (Human recombinant MMP-9; [1]): 6.30; pKi (Human recombinant MMP-2; [1]): 6.65
5 | O=C(NO)C1(S(=O)(=O)c2ccc(OCCCc3cccc(-c4cccc(O)c4)c3)cc2)CCOCC1 [Example 530] | – | – | 6.66 | 6.16 | –
6 | O=C(NO)C1(S(=O)(=O)c2ccc(OCCc3cccc(-c4ccc(Cl)cc4Cl)c3)cc2)CCOCC1 [Example 124] | < 5.00 | 5.24 | – | – | –
7 | COc1ccc(-c2cccc(CCOc3ccc(S(=O)(=O)C4(C(=O)NO)CCOCC4)cc3)c2)cc1C [Example 119] | 5.40 | 5.77 | – | – | –
8 | O=C(NO)C1(S(=O)(=O)c2ccc(OCCCc3cccc(-c4ccc(O)cc4)c3)cc2)CCOCC1 [Example 529] | – | – | 5.73 | 5.45 | –
9 | O=C(NO)C1(S(=O)(=O)c2ccc(OCCCOc3cncnc3)cc2)CCOCC1 [Example 559] | – | – | 7.24 | 7.93 | –
10 | O=C(NO)C1(S(=O)(=O)c2ccc(OCCCc3cccc(-c4cc(Cl)cc(Cl)c4)c3)cc2)CCOCC1 [Example 172] | 5.03 | < 5.00 | – | – | –
11 | Cc1ccc(-c2cccc(CCOc3ccc(S(=O)(=O)C4(C(=O)NO)CCOCC4)cc3)c2)cc1C [Example 117] | 5.00 | 5.44 | – | – | –
12 | CC(C)c1ccc(-c2cccc(CCOc3ccc(S(=O)(=O)C4(C(=O)NO)CCOCC4)cc3)c2)cc1 [Example 109] | < 5.00 | 5.09 | – | – | –
13 | CCN1CCC(C(=O)NO)(S(=O)(=O)c2ccc(OCCCc3cccc(-c4ccc(Cl)cc4)c3)cc2)CC1 [Example 526] | – | – | 5.68 | 5.77 | –
14 | O=C(NO)C1(S(=O)(=O)c2ccc(OCCCc3nc(C4CCCCC4)no3)cc2)CCN(C2CC2)CC1 [Example 137] | 6.22 | 7.44 | – | – | –
15 | O=C(NCCSc1ccc(S(=O)(=O)C2(C(=O)NO)CCOCC2)cc1)c1nc2ccccc2s1 [Example 598] | – | – | 6.15 | 6.22 | –
16 | O=C(NO)C1(S(=O)(=O)c2ccc(OCCCOCc3ccncc3)cc2)CCOCC1 [Example 555] | – | – | 7.30 | 8.47 | –

Row | Compound | pKi (Human recombinant MMP-9; value in parenthesis) | pKi (Human recombinant MMP-2; value in parenthesis) | pKi (Human recombinant MMP-9; value in parentheses) | pKi (Human recombinant MMP-2; value in parentheses) | also measured
17 | O=C(NO)C1(S(=O)(=O)c2ccc(OCCc3cccc(-c4cc(F)cc(F)c4)c3)cc2)CCOCC1 [Example 110] | 5.36 | 6.95 | – | – | –
18 | O=C(NO)C1(S(=O)(=O)c2ccc(OCCc3ccc(-c4ccc(O)cc4)cc3)cc2)CCOCC1 [Example 531] | – | – | 6.11 | 6.47 | –
19 | O=C(NCCSc1ccc(S(=O)(=O)C2(C(=O)NO)CCN(C3CC3)CC2)cc1)c1cc2ccccc2o1 [Example 542] | – | – | 6.04 | 6.63 | –
20 | O=C(NO)C1(S(=O)(=O)c2ccc(OCCOc3cncnc3)cc2)CCOCC1 [Example 554] | – | – | 6.35 | 7.21 | –
21 | COCCN1CCC(C(=O)NO)(S(=O)(=O)c2ccc(OCCc3cccc(-c4cccnc4)c3)cc2)CC1 [Example 539] | – | – | 7.07 | 7.41 | –
22 | COCCN1CCC(C(=O)NO)(S(=O)(=O)c2ccc(OCCc3cccc(-c4ccc(F)cc4F)c3)cc2)CC1 [Example 546] | – | – | 5.90 | 6.37 | –
23 | COCCN1CCC(C(=O)NO)(S(=O)(=O)c2ccc(OCCCc3nc(-c4ccc(Br)cc4C)no3)cc2)CC1 [Example 135] | 6.34 | 7.23 | – | – | –
24 | Cc1ccccc1-c1cccc(CCOc2ccc(S(=O)(=O)C3(C(=O)NO)CCOCC3)cc2)c1 [Example 116] | 5.26 | 5.90 | – | – | –
25 | COCCN1CCC(C(=O)NO)(S(=O)(=O)c2ccc(OCCc3ccc(-c4ccc(C#N)cc4)cc3)cc2)CC1 [Example 543] | – | – | 6.68 | 6.91 | –
26 | COCCN1CCC(C(=O)NO)(S(=O)(=O)c2ccc(OCCNC(=O)c3cc4ccccc4o3)cc2)CC1 [Example 553] | – | – | 7.15 | 8.11 | –
27 | COCCN1CCC(C(=O)NO)(S(=O)(=O)c2ccc(OCCc3cccc(-c4ccc(F)c(F)c4)c3)cc2)CC1 [Example 549] | – | – | 5.75 | 6.30 | –
28 | O=C(NO)C1(S(=O)(=O)c2ccc(OCCc3cccc(-c4cc(Cl)cc(Cl)c4)c3)cc2)CCOCC1 [Example 126] | < 5.00 | 5.20 | – | – | –
29 | Cc1cc(-c2cccc(CCOc3ccc(S(=O)(=O)C4(C(=O)NO)CCOCC4)cc3)c2)ccc1Cl [Example 118] | < 5.00 | 5.58 | – | – | –
30 | COCCN1CCC(C(=O)NO)(S(=O)(=O)c2ccc(OCCc3cccc(-c4ccccc4F)c3)cc2)CC1 [Example 540] | – | – | 6.16 | 6.57 | –
31 | O=C(NCCSc1ccc(S(=O)(=O)C2(C(=O)NO)CCN(C3CC3)CC2)cc1)c1nc2ccccc2s1 [Example 541] | – | – | 6.57 | 6.52 | –

More lines, main results first:

Row | pKi (Human recombinant MMP-9; value in parenthesis) | pKi (Human recombinant MMP-2; value in parenthesis) | pKi (Human recombinant MMP-9; value in parentheses) | pKi (Human recombinant MMP-2; value in parentheses) | Compound | also measured
32 | – | – | 7.94 | 8.72 | CCCCC(=O)CCCOc1ccc(S(=O)(=O)C2(C(=O)NO)CCOCC2)cc1 [Example 506] | –
33 | 5.31 | 5.82 | – | – | O=C(NO)C1(S(=O)(=O)c2ccc(OCCc3cccc(-c4ccccc4Cl)c3)cc2)CCOCC1 [Example 114] | –
34 | 5.95 | 6.17 | – | – | O=C(NO)C1(S(=O)(=O)c2ccc(OCCCc3nc(-c4ccc(OC(F)(F)F)cc4)no3)cc2)CCN(Cc2ccccc2)CC1 [Example 93] | –
35 | – | – | 6.85 | 7.53 | CCCCc1ccc(CCCOc2ccc(S(=O)(=O)C3(C(=O)NO)CCOCC3)cc2)cn1 [Example 533] | –
36 | – | – | 7.12 | 6.54 | C#Cc1ccc(-c2cccc(CCCOc3ccc(S(=O)(=O)C4(C(=O)NO)CCN(CCOC)CC4)cc3)c2)cc1 [Example 646] | –
37 | 5.06 | 5.09 | – | – | Cc1cc(-c2cccc(CCCOc3ccc(S(=O)(=O)C4(C(=O)NO)CCOCC4)cc3)c2)ccc1Cl [Example 166] | –
38 | – | – | 8.65 | 8.31 | CCc1ccc(COc2ccc(S(=O)(=O)C3(C(=O)NO)CCOCC3)cc2)cn1 [Example 552] | –
39 | – | – | 6.04 | 6.51 | COCCN1CCC(C(=O)NO)(S(=O)(=O)c2ccc(OCCc3cccc(-c4cccc(F)c4)c3)cc2)CC1 [Example 545] | –
40 | – | – | 7.40 | 8.11 | COCCN1CCC(C(=O)NO)(S(=O)(=O)c2ccc(OCCCc3cccc(-c4cccs4)c3)cc2)CC1 [Example 510] | –
41 | 5.45 | 5.95 | – | – | COCCN1CCC(C(=O)NO)(S(=O)(=O)c2ccc(OCCCc3nc(-c4ccc(CC(C)C)cc4C)no3)cc2)CC1 [Example 128] | –
42 | 7.23 | 6.64 | – | – | COCCN1CCC(C(=O)NO)(S(=O)(=O)c2ccc(OCCCc3nc(-c4cccc5ccccc45)no3)cc2)CC1 [Example 199] | –
43 | – | – | 6.93 | 7.61 | COCCN1CCC(C(=O)NO)(S(=O)(=O)c2ccc(OCCc3cccc(-c4ccncc4)c3)cc2)CC1 [Example 538] | –
44 | – | – | 6.10 | 6.62 | O=C(NCCOc1ccc(S(=O)(=O)C2(C(=O)NO)CCOCC2)cc1)c1c[nH]c2ccccc12 [Example 562] | –
45 | – | – | 6.80 | 7.64 | COCCN1CCC(C(=O)NO)(S(=O)(=O)c2ccc(OCCCc3cncc(-c4ccccc4)c3)cc2)CC1 [Example 508] | –
46 | – | – | 9.36 | 9.08 | CCCCCCCOc1ccc(S(=O)(=O)C2(C(=O)NO)CCOCC2)cc1 [Example 507] | –
47 | – | – | 6.10 | 6.52 | COCCN1CCC(C(=O)NO)(S(=O)(=O)c2ccc(OCCc3cccc(-c4ccc(F)cc4)c3)cc2)CC1 [Example 544] | –
48 | – | – | 6.49 | 7.60 | CCCc1ccc(CCCOc2ccc(S(=O)(=O)C3(C(=O)NO)CCOCC3)cc2)cn1 [Example 534] | –
49 | – | – | 7.59 | 6.12 | COCCN1CCC(C(=O)NO)(S(=O)(=O)c2ccc(OCCCc3cccc(-c4ccccc4F)c3)cc2)CC1 [Example 512] | –
50 | – | – | 7.29 | 7.05 | COCCN1CCC(C(=O)NO)(S(=O)(=O)c2ccc(OCCCc3cccc(-c4cccnc4)c3)cc2)CC1 [Example 509] | –
51 | 5.57 | 6.11 | – | – | O=C(NO)C1(S(=O)(=O)c2ccc(OCCc3cccc(-c4cccc(F)c4)c3)cc2)CCOCC1 [Example 111] | –
52 | – | – | 8.14 | 7.99 | O=C(NO)C1(S(=O)(=O)c2ccc(OCCCOc3cccnc3)cc2)CCOCC1 [Example 560] | –
53 | – | – | 7.32 | 8.29 | CCCCc1ccc(COc2ccc(S(=O)(=O)C3(C(=O)NO)CCOCC3)cc2)cn1 [Example 551] | –
54 | – | – | 6.62 | 7.08 | CCC(=O)c1cccc(CCCOc2ccc(S(=O)(=O)C3(C(=O)NO)CCOCC3)cc2)c1 [Example 528] | –
55 | – | – | 6.59 | 6.06 | COCCN1CCC(C(=O)NO)(S(=O)(=O)c2ccc(OCCCc3cccc(-c4ccc(F)cc4F)c3)cc2)CC1 [Example 513] | –
